The numbers were not newly measured in patent US8834942B2, “Enhanced absorption of oregano derived oils” (priority 2010, dated 2014), which cites them from elsewhere.

For the series the following is noted: single emulsifier.

For polyoxyethylene sorbitan monooleate, the HLB value result is given as “about 15”.
